# According to patent publication US20100210540A1, “USE OF THE PEPTIDE COMBINATION THYMOSIN BETA 4 AND DELTA SLEEP INDUCING PEPTIDE AS A THERAPEUTIC AGENT” (priority 2007, published 2010):
# Where no end group is shown, it is not given here.
# Key:
# [1] = Th1/Th2 cytokine profiling assay: IL-2; format: cell-based, Balb/c mice; details: 10 micrograms per ml; Ovalbumin restimulation; 72 hours
# From the text: (§1) The Balb/c mice (originated in 1923, it is a popular strain and is used in many different research disciplines. Also classified as an inbred from the production of 20 or more successive brother-sister matings, the Balb/c mouse is albino and small in size) were immunized on Days 1, 15, and 29 with Ovalbumin (Ovalbumin is the main protein found in egg white, commonly used to stimulate an immunological reaction in test animals) in PBS (5 micrograms/injection). On day 50, spleens of the mice were harvested (3 weeks after last boost with Ovalbumin). Cells were cultured (2×10^5/well in triplicate) and incubated with culture medium or test peptides—10 micrograms per ml—for 30 min. Thereafter, additional Ovalbumin was added to the cells at 10 micrograms/ml for in vitro restimulation of the cells. 72 hours later, cell supernatants were harvested and assayed using the Becton Dickinson Mouse Th1fTh2 Cytokine CBA Kit. This kit can be used to measure Interleukin-2 (IL-2), Interleukin-4 (IL-4), Interleukin-5 (IL-5), Interferon-γ (IFN-γ), and Tumor Necrosis Factor-α (TNF-α) protein levels in a single sample. The kit performance has been optimized for analysis of physiologically relevant concentrations (pg/ml levels) of specific cytokine proteins in tissue culture supernatants and serum samples.
# [2] = system: cyclic AMP generation in human peripheral blood mononuclear cells (PBMC); assay: cAMP induction assay (ELISA); format: cell-based; details: 10 micrograms per ml; 10 min at 37° C.
# From the text: Adenosine 3′,5′-cyclic monophosphate (cyclic AMP; cAMP) is one of the most important “second messengers” involved as a modulator of physiological processes. cAMP is also involved in regulating neuronal, glandular, cardiovascular, immune and other functions and actions in a regulatory way. For being a second messenger, cAMP has the following characteristics to work effectively: 1) Amplification—when a few peptide molecules signal the cell, it needs to respond with a signal that is strong enough to get a job done without repeated high levels of stimulation. 2) Control—eventually a response must be shut down, and there are instances when its necessary to respond a little or a lot—so control is needed. 3)—Specificity—when a peptide is utilized, a given cell should respond in a specific way. Not all cells will respond to this peptide and therefore they cannot have the same effect in all the cells. Elevated levels of cAMP in human cells are associated with the suppression of cell activation.
# The cAMP kit was used as an immunoassay for the quantitative determination of cyclic AMP generation in human peripheral blood mononuclear cells (PBMC). […]; 50 micrograms per ml), or test peptides—10 micrograms per ml—were added. […]. NaOH was added to neutralize the samples. Plates were centrifuged for 15 min at 2500 rpm and the supernatants removed. […]
# [3] = system: hepatitis B virus (HBV) ayw strain; assay: HBV experimental assay system (secreted HBV DNA, TaqMan PCR); format: cell-based; details: 10 micrograms per ml; HepG2-2.2.15 cells; six days
# [4] = system: HUVEC; assay: Endothelial tube formation assay; format: cell-based, human; details: 10 micrograms per ml, 20 hours
# From the text: Positive control was vehicle only.
# [5] = system: Interleukin-4 (IL-4); assay: Th1/Th2 cytokine profiling assay: IL-4; format: cell-based, Balb/c mice; details: 10 micrograms per ml; Ovalbumin restimulation; 72 hours
# From the text: as §1
# [6] = system: Tumor Necrosis Factor-α (TNF-α); assay: Th1/Th2 cytokine profiling assay: TNF-α; format: cell-based, Balb/c mice; details: 10 micrograms per ml; Ovalbumin restimulation; 72 hours
# From the text: as §1
# [7] = system: Interferon-γ (IFN-γ); assay: Th1/Th2 cytokine profiling assay: IFN-γ; format: cell-based, Balb/c mice; details: 10 micrograms per ml; Ovalbumin restimulation; 72 hours
# From the text: as §1
# [8] = system: Interleukin-5 (IL-5); assay: Th1/Th2 cytokine profiling assay: IL-5; format: cell-based, Balb/c mice; details: 10 micrograms per ml; Ovalbumin restimulation; 72 hours
# From the text: as §1
# [9] = system: HCMV strain AD169; assay: HCMV plaque formation assay in MRC-5 cells; format: cell-based; details: for inhibition of HCMV plaque formation as compared to the virus control experiment: 10 micrograms per ml, 7-10 days
# From the text: Ganciclovir was used as positive control.
# [10] = system: RAW 264.7 cells; assay: Phagocytosis assay (Fluorescein-labeled Escherichia coli, flow cytometry); format: cell-based, Mouse; details: 10 micrograms per ml
# Description: RAW 264.7 (Mouse leukaemic monocyte macrophage cell line) cells were obtained from ATCC and grown in RPMI 1640 medium containing 10% FBS. Cells were incubated in 12×75 mm tubes at 37° C. with test peptides—10 micrograms per ml—for 30 min prior to adding Fluorescein-labeled Escherichia coli bacteria as the agent to be ingested. After the cells were incubated for additional 60 min at 37° C. and allowed to ingest the Fluorescein-labeled Escherichia coli bacteria, cells were fixed with 1% paraformaldehyde. The samples were then analyzed by flow cytometry to determine the amount of phagocytosis as a function of brightness (the greater the phagocytic activity, the more fluorescence in the macrophage population). Data are reported as % positive and the mean fluorescence intensity (MFI) of positively stained cells.
# [11] = system: HIV-1III8; assay: HIV-1 antiviral assay in CEM-SS cells (MTS readout)
# [12] = system: Primary Human endothelial cells (HUVEC); assay: Endothelial cell migration assay; format: cell-based; details: 10 micrograms per ml, 22 hours
# Description: Thereafter, designated concentration of testing peptides—10 micrograms per ml—was added in duplicate wells.
Compound,production of IL-2 in murine spleen cells (induced by) [1],cAMP formation in PBMC (induced by) [2],inhibition of HBV replication on tested liver cells [3],inhibition of the tube formation of human endothelial cells [4],production of IL-4 in murine spleen cells (induced by) [5],production of TNF-alpha in murine spleen cells (change) [6],production of IFN-γ in murine spleen cells (decreased by) [7],production of IL-5 in murine spleen cells (change) [8],inhibition of HCMV plaque formation as compared to the virus control experiment [9],antiviral activity of positive control compounds [11],other results
Trp-Ala-Gly-Gly-Asp-Ala-Ser-Gly-Glu-OH (WAGGDASGE-OH) [Peptide 2],38.1%,no effects,no effect,3%,70.6%,did not significantly change,40.8%,did not significantly change,4.4%,,inhibitory effects on the phagocytic activity of murine macrophages [10]: no inhibitory effects
CC(C)(C)NC(=O)[C@@H]1CN(Cc2cccnc2)CCN1C[C@@H](O)C[C@@H](Cc1ccccc1)C(=O)N[C@H]1c2ccccc2C[C@H]1O [indinavir],,,,,,,,,,expected levels of antiviral activity,
Cc1cn([C@H]2C[C@H](N=[N+]=[N-])[C@@H](CO)O2)c(=O)[nH]c1=O [AZT],,,,,,,,,,expected levels of antiviral activity,
"Nc1nc(O)c2ncn(COC(CO)CO)c2n1 [Ganciclovir, reference compound]",,,,,,,,,,,antiviral activity of positive control compound ([9]; positive control): expected levels of antiviral activity
Ac-Ser-Asp-Lys-Pro-Asp-Met-Ala-Glu-Ile-Glu-Lys-Phe-Asp-Lys-Ser-Lys-Leu-Lys-Lys-Thr-Glu-Thr-Gln-Glu-Lys-Asn-Pro-Leu-Pro-Ser-Lys-Glu-Thr-Ile-Glu-Gln-Glu-Lys-Gln-Ala-Gly-Glu-Ser-OH (SDKPDMAEIEKFDKSKLKKTETQEKNPLPSKETIEQEKQAGES; printed: Ser-Asp-Lys-Pro-Asp-Met-Ala-Glu-Ile-Glu-Lys-Phe-Asp-Lys-Ser-Lys-Leu-Lys-Lys-Thr-Glu-Thr-Gln-Glu-Lys-Asn-Pro-Leu-Pro-Ser-Lys-Glu-Thr-Ile-Glu-Gln-Glu-Lys-Gln-Ala-Gly-Glu-Ser-) [Peptide 1],did not significantly change,15.8%,no effect,23%,31.6%,did not significantly change,52.7%,did not significantly change,1.0%,,"inhibition of the migration of human endothelial cells [12]: 3%; phagocytosis induced, as compared to the control experiment ([10]; 30 min preincubation, 60 min ingestion): 45.7%"
